Laboratory results from PubChem BioAssay (NCI).
“And” between values parts separate entries of the source, which are not always exact repeats. Equal entries are not always repeated.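 Results reflect a 48-hour exposure of cells in 96-well plates to compound at five concentrations. Abbreviation: GI50, concentration required for 50% inhibition of growth. At the TGI there is no net growth.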

Assays:
Assay in all cases: inhibition of tumour cell growth, NCI panel, 48 h
CAKI-1 renal = test system: CAKI-1 renal
NCI-H226 lung = test system: NCI-H226 lung
SK-OV-3 ovarian = test system: SK-OV-3 ovarian
HT29 colon = test system: HT29 colon
SK-MEL-28 melanoma = test system: SK-MEL-28 melanoma
SR leukemia = test system: SR leukemia
SF-295 CNS = test system: SF-295 CNS
SK-MEL-2 melanoma = test system: SK-MEL-2 melanoma
MALME-3M melanoma = test system: MALME-3M melanoma
HCT-15 colon = test system: HCT-15 colon

Row | SMILES | GI50 (CAKI-1 renal) | TGI (CAKI-1 renal) | GI50 (NCI-H226 lung) | TGI (NCI-H226 lung) | GI50 (SK-OV-3 ovarian) | TGI (SK-OV-3 ovarian) | GI50 (HT29 colon) | TGI (HT29 colon) | GI50 (SK-MEL-28 melanoma) | TGI (SK-MEL-28 melanoma) [µM] | GI50 (SR leukemia) | TGI (SR leukemia) | GI50 (SF-295 CNS) | TGI (SF-295 CNS) | GI50 (SK-MEL-2 melanoma) | TGI (SK-MEL-2 melanoma) | GI50 (MALME-3M melanoma) | TGI (MALME-3M melanoma) | GI50 (HCT-15 colon) | TGI (HCT-15 colon) [µM]
1 | COc1cc(-c2nn(-c3cccc(NC(=O)c4cccc(C(F)(F)F)c4)c3)cc2-c2ccncc2)ccc1Cl | 2.01 µM | > 50 µM | 1.66 µM | 27 µM | 2.29 µM | > 50 µM | 1.39 µM | 20.1 µM | 2.49 µM | > 50 | 0.838 µM | 4.59 µM | 1.02 µM | 3 µM | 1.56 µM | > 50 µM | 1.89 µM | > 50 µM | 1.55 µM | > 50
2 | O=C(/C=C/c1ccc(OCC(=O)N2CCN(c3ccccc3)CC2)cc1)c1ccccc1 | – | > 100 µM | – | > 60.4 µM | – | > 100 µM | – | > 100 µM | – | 54.5 | – | 7.45 µM | – | > 100 µM | – | > 60.4 µM | – | > 58.2 µM | – | > 100
3 | COC(=O)/C(=C/c1ccc(OC)cc1)c1cc(OC)c(OC)c(OC)c1 | – | > 100 µM | – | 42.3 µM | – | 40.4 µM | – | > 74.9 µM | – | > 100 | – | > 19.6 µM | – | 8.02 µM | – | > 100 µM | – | > 100 µM | – | > 100
4 | COc1cc2c(cc1OCCCN1CCN(CCCn3c4ccccc4c4ccccc43)CC1)N=C[C@@H]1CCCN1C2=O | 0.148 µM | 1.17 µM | 0.323 µM | 1.48 µM | 0.32 µM | 1.27 µM | 0.0342 µM | 0.289 µM | 0.0516 µM | 0.151 | 0.0206 µM | 12.4 µM | < 0.0359 µM | 0.235 µM | 0.159 µM | 0.539 µM | 0.102 µM | 0.432 µM | 0.623 µM | 2.15
5 | O=C(Nc1cccc(C(F)(F)F)c1)Nc1ccc(OCc2nnc(-c3ccccc3)o2)c(F)c1 | 6.68 µM | 37.4 µM | 10.7 µM | 52 µM | 5.57 µM | 27.3 µM | 5.08 µM | 58.5 µM | 10.3 µM | 66.5 | 2.23 µM | 9.65 µM | 2.7 µM | 14.1 µM | 7.16 µM | 25.8 µM | 3.35 µM | – | 2.92 µM | 54.3
6 | CC(C)C12CCC3(CCC4C(C)(C(=O)O)CCCC4(C)C3C1)C(CN)C2 (configuration not stated) | – | > 100 µM | – | > 100 µM | – | > 100 µM | – | 47.2 µM | – | > 100 | – | 60.1 µM | – | > 100 µM | – | > 100 µM | – | > 100 µM | – | > 100
7 | OCCn1c(-c2ccncc2)c(-c2ccc(F)cc2)c2ncccc21 | > 25 µM | > 25 µM | > 25 µM | > 25 µM | > 25 µM | > 25 µM | > 25 µM | > 25 µM | > 25 µM | > 25 | > 25 µM | > 25 µM | > 25 µM | > 25 µM | > 25 µM | > 25 µM | > 25 µM | > 25 µM | > 25 µM | > 25
8 | CC(=O)Nc1ccc(C(=O)COc2cccc(/C=C3\CCc4ccccc4C3=O)c2)cc1 | 21 µM | 77.1 µM | 16.3 µM | > 100 µM | 30.1 µM | > 100 µM | 18.7 µM | > 100 µM | 20.3 µM | 37.8 | 0.0802 µM | 16.7 µM | 11.2 µM | 39.6 µM | 14.8 µM | 65.8 µM | 15.8 µM | 39.5 µM | 11.2 µM | 32
9 | Cc1c(C(=O)C/C(=N/NC(=O)CC#N)C(N)=O)[n+](=O)c2ccccc2n1[O-] | – | > 100 µM | – | > 100 µM | – | > 100 µM | – | > 100 µM | – | > 100 | – | > 100 µM | – | > 100 µM | – | > 100 µM | – | > 100 µM | – | > 100
10 | CS(=O)(=O)Nc1ccc(Nc2c3ccccc3nc3cc(Cl)ccc23)cc1 | 0.397 µM | 8.68 µM | 0.672 µM | 6.17 µM | 1.28 µM | 13.3 µM | 2.57 µM | 14.1 µM | 3.62 µM | 19.2 | 0.177 µM | 16 µM | 1.07 µM | 15.3 µM | 9.16 µM | 22.7 µM | 1.96 µM | 12.3 µM | 1.37 µM | 14.2
11 | Nc1ccc(N)c2c1C(=O)c1cccc([N+](=O)[O-])c1C2=O | 0.549 µM | 4.07 µM | 0.312 µM | – | 3.43 µM | > 100 µM | 5.6 µM | > 100 µM | 11.5 µM | > 100 | 0.529 µM | > 20.6 µM | 0.776 µM | > 100 µM | 7.74 µM | > 100 µM | 5.69 µM | > 100 µM | 2.16 µM | > 100
12 | CCOC(=O)c1c(/C=N\Nc2ccccc2)nc2ccccc2c1-c1ccccc1 | – | > 100 µM | – | > 100 µM | – | > 100 µM | – | > 100 µM | – | > 100 | – | 61.4 µM | – | > 100 µM | – | > 100 µM | – | 90.5 µM | – | > 100
13 | CCC(=C(c1ccc(OCCN(CC)CC)cc1)c1ccc(OCCN(CC)CC)cc1)c1ccc(Cl)cc1 | 0.515 µM | 0.984 µM | 0.679 µM | 1.48 µM | 0.594 µM | 1.16 µM | 0.51 µM | 1.15 µM | 0.592 µM | 1.09 | 0.249 µM | 0.981 µM | 0.615 µM | 1.19 µM | 0.634 µM | 1.27 µM | 0.567 µM | 1.07 µM | 0.541 µM | 1.08
14 | Cn1c(=O)c(Oc2ccc(F)cc2F)cc2cnc(NC3CCC(O)CC3)nc21 (configuration not stated) | > 25 µM | > 25 µM | > 25 µM | > 25 µM | > 25 µM | > 25 µM | > 25 µM | > 25 µM | > 25 µM | > 25 | > 25 µM | > 25 µM | > 25 µM | > 25 µM | > 25 µM | > 25 µM | > 25 µM | > 25 µM | > 25 µM | > 25
15 | O=C(NCc1cccnc1)c1ccc([N+](=O)[O-])o1 | 2.39 µM | 13.3 µM | 4.21 µM | 13.2 µM | 4.13 µM | 14.2 µM | 0.825 µM | 2.37 µM | 2.83 µM | 7.58 | 1.24 µM | > 32.5 µM | 2.48 µM | 7.14 µM | 4.91 µM | 14.4 µM | 1.56 µM | 7.88 µM | 0.647 µM | 1.76
16 | Oc1ccc(/C=N/Nc2nnc(N/N=C/c3ccc(O)cc3O)c3ccccc23)c(O)c1 | 0.334 µM | 0.671 µM | 1.92 µM | 6.98 µM | 0.552 µM | 4.5 µM | 1.76 µM | 7.2 µM | 0.552 µM | 5.26 | 0.205 µM | 0.592 µM and 0.719 µM | 0.173 µM | 0.813 µM and 0.597 µM | 0.674 µM | 0.623 µM and 2.57 µM | 0.633 µM | 4.28 µM | 0.332 µM | –
17 | O=C(CO[N+](=O)[O-])OCC(=O)c1ccccc1 | – | > 100 µM | – | > 100 µM | – | > 100 µM | – | > 100 µM | – | > 100 | – | > 100 µM | – | > 100 µM | – | > 100 µM | – | > 100 µM | – | > 100
18 | COc1cc2nccc(Oc3ccc(NC(=O)C4(C(=O)Nc5ccc(F)cc5)CC4)cc3)c2cc1OC | 5.87 µM and 3.61 µM | > 10 µM and 40.9 µM | 2.29 µM and 1.7 µM | > 10 µM and 5.52 µM | > 10 µM and 5.83 µM | > 10 µM and 42.3 µM | 7.71 µM and 2.74 µM | > 10 µM and 20.4 µM | > 10 µM and 3.74 µM | > 79 | > 10 µM and 2.21 µM | > 23.7 µM | 0.406 µM and 0.289 µM | > 10 µM and 4.95 µM | > 10 µM and 7.13 µM | > 10 µM and 27.9 µM | > 10 µM and 2.11 µM | > 10 µM and 9.17 µM | > 10 µM and 3.94 µM | > 100
19 | O=C1COc2c(CCNCCN(C(=O)CCNCCc3ccc(Cl)c(Cl)c3)C3CCCCC3)ccc(O)c2N1 | > 45.9 µM | > 74.9 µM | 17.7 µM | 35.9 µM | 16 µM | 30.8 µM | 16.7 µM | 33.8 µM | 14.8 µM | 29.3 | 12.2 µM | 33.7 µM | 15.7 µM | 30.8 µM | 17.2 µM | 34.9 µM | 21.9 µM | 39.6 µM | 15.7 µM | 31.2
20 | CN(C)C(=O)c1cc2cnc(Nc3ccc(N4CCNCC4)cn3)nc2n1C1CCCC1 | 20 µM | > 100 µM | 25.2 µM | > 100 µM | 34.8 µM | > 100 µM | 3.28 µM | > 100 µM | 16.1 µM | 48.3 | 3.21 µM | 38.7 µM | 13.1 µM | 42 µM | 12.2 µM | 30.1 µM | 5.4 µM | 22.3 µM | 16.6 µM | > 100
21 | O=C1OC(c2ccccc2)=N/C1=C\c1ccc(N(CCCl)CCCl)cc1 | – | > 100 µM | – | > 100 µM | – | > 100 µM | – | > 100 µM | – | > 100 | – | > 69.7 µM | – | > 100 µM | – | > 100 µM | – | > 100 µM | – | > 100
